Values joined by “and” are separate entries in the source; they are usually repeats but may differ in a detail not shown here. Equal entries are not always repeated. Toxic doses and inconclusive results are not listed. The calls were made as follows: active = survival T/C of 150% or more; inactive = T/C below 125% in these data.
Tested on: P388 leukemia ip, CD2F1 mice, survival T/C
Assay: NCI In Vivo Anticancer Drug Screen. Data for tumor model P388 Leukemia (intraperitoneal) in CD2F1 (CDF1) mice
Details: endpoint: median survival time, higher = longer survival
How it was run: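 Mice carrying the transplanted tumor received test compound or vehicle. Survival was recorded in each group, and the value is the treated-group measurement divided by that of the vehicle-treated control group.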

[1] = dose: 50.0 mg/kg/injection, schedule: Q01DX009 (ip), vehicle: saline
[2] = dose: 100.0 mg/kg/injection, schedule: Q01DX009 (ip), vehicle: saline
[3] = dose: 200.0 mg/kg/injection, schedule: Q01DX009 (ip), vehicle: saline
[4] = dose: 50.0 mg/kg/injection, schedule: Q01DX009 (ip), vehicle: saline with Tween-80
[5] = dose: 100.0 mg/kg/injection, schedule: Q01DX009 (ip), vehicle: saline with Tween-80
[6] = dose: 200.0 mg/kg/injection, schedule: Q01DX009 (ip), vehicle: saline with Tween-80
[7] = dose: 12.5 mg/kg/injection, schedule: Q01DX005 (ip), vehicle: saline with Tween-80
[8] = dose: 25.0 mg/kg/injection, schedule: Q01DX005 (ip), vehicle: saline with Tween-80
[9] = dose: 50.0 mg/kg/injection, schedule: Q01DX005 (ip), vehicle: saline with Tween-80
[10] = dose: 100.0 mg/kg/injection, schedule: Q01DX005 (ip), vehicle: saline with Tween-80
[11] = dose: 200.0 mg/kg/injection, schedule: Q01DX005 (ip), vehicle: saline with Tween-80
[12] = dose: 50.0 mg/kg/injection, schedule: Q01DX009 (ip), vehicle: Klucel (hydroxypropylcellulose) (HPC)
[13] = dose: 100.0 mg/kg/injection, schedule: Q01DX009 (ip), vehicle: Klucel (hydroxypropylcellulose) (HPC)
[14] = dose: 200.0 mg/kg/injection, schedule: Q01DX009 (ip), vehicle: Klucel (hydroxypropylcellulose) (HPC)

Measured: T/C

Cc1nnsc1-c1n[nH]c(=S)n1N
inactive: dose: 25.0 mg/kg/injection, schedule: Q01DX001 (ip), vehicle: Klucel (hydroxypropylcellulose) (HPC) 106 % of control | dose: 50.0 mg/kg/injection, schedule: Q01DX001 (ip), vehicle: Klucel (hydroxypropylcellulose) (HPC) 107 % of control | dose: 100.0 mg/kg/injection, schedule: Q01DX001 (ip), vehicle: Klucel (hydroxypropylcellulose) (HPC) 101 % of control

CCC[CH2][Sn]1([CH2]CCC)[O]C(=O)CSC(=S)SCC(=O)[O]1
inactive: dose: 1.56 mg/kg/injection, schedule: Q01DX009 (ip), vehicle: saline 90 % of control | dose: 3.12 mg/kg/injection, schedule: Q01DX009 (ip), vehicle: saline 92 % of control | dose: 6.25 mg/kg/injection, schedule: Q01DX009 (ip), vehicle: saline with Tween-80 116 % of control | dose: 6.25 mg/kg/injection, schedule: Q01DX009 (ip), vehicle: saline 89 % of control

CCOC(=O)c1ncc(OCC)o1
inactive: [1] 91 % of control | [2] 89 % of control | [3] 95 % of control

O=S(=O)(O)C(Nc1cccc(Cl)c1)c1ccccc1 (stereo not given)
inactive: [4] 97 % of control | [5] 95 % of control | [6] 103 % of control

O=[N+]([O-])c1ccc2c(NCCCCCCNc3c4ccccc4nc4cc([N+](=O)[O-])ccc34)c3ccccc3nc2c1
inactive: dose: 0.63 mg/kg/injection, schedule: Q01DX009 (ip), vehicle: other 121 % of control

CCCCCCCCCC(=O)C1C(c2ccccc2)CC(=O)C(CCCCCCCC)C1c1ccccc1 (stereo not given)
inactive: [7] 87 % of control | [8] 98 % of control | [9] 109 % of control and 93 % of control | [10] 105 % of control | [11] 115 % of control

Cn1c(=O)[nH]n(C2Cn3c(=O)n(C)c(=O)n3-c3ccccc32)c1=O (stereo not given)
inactive: dose: 50.0 mg/kg/injection, schedule: Q01DX005 (ip), vehicle: Klucel (hydroxypropylcellulose) (HPC) 115 % of control | dose: 100.0 mg/kg/injection, schedule: Q01DX005 (ip), vehicle: Klucel (hydroxypropylcellulose) (HPC) 99 % of control | dose: 200.0 mg/kg/injection, schedule: Q01DX005 (ip), vehicle: Klucel (hydroxypropylcellulose) (HPC) 96 % of control

Cc1csc(N2C(=O)c3cccc4cccc(c34)C2=O)n1
inactive: dose: 60.0 mg/kg/injection, schedule: Q01DX005 (ip), vehicle: saline with Tween-80 110 % of control | dose: 120.0 mg/kg/injection, schedule: Q01DX005 (ip), vehicle: saline with Tween-80 96 % of control | dose: 240.0 mg/kg/injection, schedule: Q01DX005 (ip), vehicle: saline with Tween-80 96 % of control

CCCN(CCC)C(C)C(O)c1cccc2ccccc12 (stereo not given)
inactive: dose: 50.0 mg/kg/injection, schedule: Q01DX005 (ip), vehicle: saline 97 % of control | dose: 100.0 mg/kg/injection, schedule: Q01DX005 (ip), vehicle: saline 109 % of control

COC1(c2ccc(C)cc2)OC12CCN(C)CC2 (stereo not given)
inactive: [9] 106 % of control | [10] 95 % of control | [11] 106 % of control

N#CCC(=O)NCc1ccncc1
inactive: dose: 25.0 mg/kg/injection, schedule: Q01DX009 (ip), vehicle: saline 110 % of control | [1] 100 % of control | [2] 108 % of control | [3] 110 % of control | dose: 400.0 mg/kg/injection, schedule: Q01DX009 (ip), vehicle: saline 101 % of control

O=[N+]([O-])c1cccc2c(-c3nccc4c([N+](=O)[O-])cccc34)nccc12
inactive: [9] 87 % of control | [10] 87 % of control

COc1cc(C)c(O)c(C/C=C(\C)CC2=C[C@@]3(C)CCC[C@@]3(C)[C@]3(CC(O)C(C)(C)O3)O2)c1 (stereo not given in full)
inactive: dose: 20.0 mg/kg/injection, schedule: Q01DX005 (ip), vehicle: saline with Tween-80 98 % of control | dose: 40.0 mg/kg/injection, schedule: Q01DX005 (ip), vehicle: saline with Tween-80 100 % of control | dose: 80.0 mg/kg/injection, schedule: Q01DX005 (ip), vehicle: saline with Tween-80 119 % of control

Cc1ccc(N=Nc2c(C)nn(C(=S)S)c2C)cc1
inactive: dose: 100.0 mg/kg/injection, schedule: Q04DX002 (ip), vehicle: Klucel (hydroxypropylcellulose) (HPC) 100 % of control | dose: 200.0 mg/kg/injection, schedule: Q04DX002 (ip), vehicle: Klucel (hydroxypropylcellulose) (HPC) 105 % of control

COc1ccc(OC)c(CC=C(C)C)c1
inactive: dose: 15.25 mg/kg/injection, schedule: Q01DX009 (ip), vehicle: Klucel (hydroxypropylcellulose) (HPC) 100 % of control | dose: 30.5 mg/kg/injection, schedule: Q01DX009 (ip), vehicle: Klucel (hydroxypropylcellulose) (HPC) 97 % of control | dose: 61.0 mg/kg/injection, schedule: Q01DX009 (ip), vehicle: Klucel (hydroxypropylcellulose) (HPC) 107 % of control | dose: 122.0 mg/kg/injection, schedule: Q01DX009 (ip), vehicle: Klucel (hydroxypropylcellulose) (HPC) 100 % of control

O=C1C(c2ccccc2)=S=C2C=Cc3ccccc3N12
inactive: dose: 100.0 mg/kg/injection, schedule: Q01DX001 (ip), vehicle: saline with Tween-80 109 % of control | dose: 200.0 mg/kg/injection, schedule: Q01DX001 (ip), vehicle: saline with Tween-80 111 % of control | dose: 400.0 mg/kg/injection, schedule: Q01DX001 (ip), vehicle: saline with Tween-80 116 % of control

COc1ccc([N+](=O)[O-])cc1NS(=O)(=O)c1ccc(NC(C)=O)cc1
inactive: [12] 100 % of control | [13] 99 % of control | [14] 99 % of control

O=C(N/N=C\c1cccc2ccccc12)C(=O)N/N=C/c1cccc2ccccc12
inactive: [7] 93 % of control | [8] 91 % of control | [9] 94 % of control | [10] 87 % of control | [11] 91 % of control

CCC(C)C1(O)OC2CC3(C)OC(=CC3=O)/C(C)=C\C3OC(=O)C1(C)C32 (stereo not given)
inactive: dose: 10.0 mg/kg/injection, schedule: Q01DX005 (ip), vehicle: saline + alcohol 96 % of control | dose: 20.0 mg/kg/injection, schedule: Q01DX005 (ip), vehicle: saline + alcohol 100 % of control | dose: 40.0 mg/kg/injection, schedule: Q01DX005 (ip), vehicle: saline + alcohol 105 % of control | dose: 80.0 mg/kg/injection, schedule: Q01DX005 (ip), vehicle: saline + alcohol 99 % of control

Clc1ccc2nc(C(Cl)(Cl)Cl)nc(NCCN3CCCCC3)c2c1
inactive: [4] 100 % of control | [5] 100 % of control | [6] 90 % of control

OCC1OC(n2cnc3cc(Cl)c(Cl)cc32)C(O)C1O (stereo not given)
inactive: dose: 8.0 mg/kg/injection, schedule: Q03HX024 (ip), vehicle: saline with Tween-80 96 % of control | dose: 16.0 mg/kg/injection, schedule: Q03HX024 (ip), vehicle: saline with Tween-80 99 % of control | dose: 20.0 mg/kg/injection, schedule: Q04DX003 (ip), vehicle: other 95 % of control | dose: 20.0 mg/kg/injection, schedule: Q04DX003 (oral), vehicle: other 103 % of control | dose: 25.0 mg/kg/injection, schedule: Q01DX009 (ip), vehicle: saline with Tween-80 93 % of control | dose: 32.0 mg/kg/injection, schedule: Q03HX024 (ip), vehicle: saline with Tween-80 114 % of control and 116 % of control | dose: 40.0 mg/kg/injection, schedule: Q04DX003 (ip), vehicle: other 100 % of control | dose: 40.0 mg/kg/injection, schedule: Q04DX003 (oral), vehicle: other 100 % of control | [4] 106 % of control | dose: 80.0 mg/kg/injection, schedule: Q04DX003 (ip), vehicle: other 95 % of control | dose: 80.0 mg/kg/injection, schedule: Q04DX003 (oral), vehicle: other 103 % of control | [5] 123 % of control | dose: 160.0 mg/kg/injection, schedule: Q04DX003 (ip), vehicle: other 110 % of control | dose: 160.0 mg/kg/injection, schedule: Q04DX003 (oral), vehicle: other 100 % of control | dose: 320.0 mg/kg/injection, schedule: Q04DX003 (ip), vehicle: other 119 % of control | dose: 320.0 mg/kg/injection, schedule: Q04DX003 (oral), vehicle: other 107 % of control | dose: 640.0 mg/kg/injection, schedule: Q04DX003 (oral), vehicle: other 100 % of control
active: [6] 160 % of control

Cc1c(Cl)cccc1N=Cc1ccc(C=Nc2cccc(Cl)c2C)cc1
inactive: [12] 94 % of control | [13] 92 % of control | [14] 91 % of control

From PubChem BioAssay AID330 (DTP/NCI, 2004)
